Measurements published in US20240360114A1 (SIRONAX LTD., priority 2021, published 2024).

Tested on: HT-1080 cells
Experiment: HT-1080 cell viability assay (ferroptosis induced by RSL3, Cell Titer-Glo)
Assay type: cell-based
Settings: ferroptosis inducer RSL3, 20 hours, ferroptosis inhibitory activity, Table 2
Outline: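 Cells seeded overnight, then co-treated with RSL3 and compound (3-fold, 10-point dilution, top 1.1 μM) for 20 hours. Viability by CellTiter-Glo luminescence, normalized to untreated controls; EC50 from sigmoidal non-linear regression.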

CN(C)CCCN1CCC(Nc2ccc(C3CCC(C)(C)CC3)cc2)CC1=O (stereo not shown) [Compound 247, 1-(3-(dimethylamino)propyl)-4-((4-(4,4-dimethylcyclohexyl)phenyl)amino)piperidin-2-one]
EC50 (Homo sapiens, HT-1080, 20 h): 0.1 to 100 nM

CC1(C)CCC(c2ccc(NC3CCC(NC(N)=O)CC3)cc2)CC1 (stereo not shown) [Compound 248, 1-(4-((4-(4,4-dimethylcyclohexyl)phenyl)amino)cyclohexyl)urea]
EC50 (Homo sapiens, HT-1080, 20 h): 100 to 1000 nM

CC1(C)CCC(c2ccc(NC3CCC(NS(N)(=O)=O)CC3)cc2)CC1 (stereo not shown) [Compound 249, N-(4-{[4-(4,4-dimethylcyclohexyl)phenyl]amino}cyclohexyl)aminosulfonamide]
EC50 (Homo sapiens, HT-1080, 20 h): 0.1 to 100 nM

CC1CC(Nc2ccc(C(C)(C)C)cc2)CCC1N (stereo not shown) [Compound 250A, N1-(4-(tert-butyl)phenyl)-3-methylcyclohexane-1,4-diamine]
EC50 (Homo sapiens, HT-1080, 20 h): 0.1 to 100 nM

NC1CCC(Nc2ccc(C3CCC(F)(F)CC3)cc2)CC1 (stereo not shown) [Compound 251A, N1-(4-(4.4-difluorocyclohexyl)phenyl)cyclohexane-1,4-diamine]
EC50 (Homo sapiens, HT-1080, 20 h): 0.1 to 100 nM

CCCCCCc1cc(NC2CCC(N)CC2)ccc1C(C)(C)C (stereo not shown) [Compound 253A, N1-(4-(tert-butyl)-3-hexylphenyl)cyclohexane-1,4-diamine]
EC50 (Homo sapiens, HT-1080, 20 h): 0.1 to 100 nM

COCCCCOc1cc(NC2CCC(N)CC2)ccc1C(C)(C)C (stereo not shown) [Compound 254, N1-(4-(tert-butyl)-3-(4-methoxybutoxy)phenyl)cyclohexane-1,4-diamine]
EC50 (Homo sapiens, HT-1080, 20 h): 0.1 to 100 nM

CC(C)(C)c1ccc(NC2CCC(O)C(O)C2)cc1 (stereo not shown) [Compound 255, 4-((4-(tert-butyl)phenyl)amino)cyclohexane-1,2-diol]
EC50 (Homo sapiens, HT-1080, 20 h): 1000 to 10000 nM

CCOCCN(CCCCOC)CCNc1ccc(C(C)(C)C)cc1 [Compound 256, N1-(4-(tert-butyl)phenyl)-N2-(2-ethoxyethyl)-N2-(4-methoxybutyl) ethane-1,2-diamine]
EC50 (Homo sapiens, HT-1080, 20 h): 1000 to 10000 nM

CN(C)CCNC1CCC(Nc2ccc(C(C)(C)C)cc2)CC1 (stereo not shown) [Compound 257]
EC50 (Homo sapiens, HT-1080, 20 h): 0.1 to 100 nM

CC(C)(C)c1ccc(NC2CCC(C[N+](C)(C)C)CC2)cc1 (stereo not shown) [Compound 258, 1-(4-((4-(tert-butyl)phenyl)amino)cyclohexyl)-N,N,N-trimethylmethanaminium]
EC50 (Homo sapiens, HT-1080, 20 h): 1000 to 10000 nM

CC(C)(C)c1ccc(NC2CCC(NS(N)(=O)=O)CC2)cc1 (stereo not shown) [Compound 259A]
EC50 (Homo sapiens, HT-1080, 20 h): 100 to 1000 nM

CC(C)(C)c1ccc(NC[C@H]2CC[C@H](N)CC2)cc1 [Compound 260, N-(((1r,4r)-4-aminocyclohexyl)methyl)-4-(tert-butyl)aniline]
EC50 (Homo sapiens, HT-1080, 20 h): 0.1 to 100 nM

CC1(C)CCC(c2ccc(NC3CCS(=O)(=O)CC3)cc2)CC1 [Compound 261, 4-((4-(4,4-dimethylcyclohexyl)phenyl)amino)tetrahydro-2H-thiopyran 1,1-dioxide]
EC50 (Homo sapiens, HT-1080, 20 h): 100 to 1000 nM

CCOCCCc1ccc(NC2CCC(N)CC2)cc1 (stereo not shown) [Compound 262, (1s,4s)-N1-(4-(3-ethoxypropyl)phenyl)cyclohexane-1,4-diamine]
EC50 (Homo sapiens, HT-1080, 20 h): 100 to 1000 nM

CNCC1CCC(Nc2ccc(C(C)(C)C)cc2)C1 (stereo not shown) [Compound 263, 4-(tert-butyl)-N-(3-((methylamino)methyl)cyclopentyl)aniline]
EC50 (Homo sapiens, HT-1080, 20 h): 100 to 1000 nM

NCCC1CCC(Nc2ccc3c(c2)CCC3)CC1 (stereo not shown) [Compound 264, N-(4-(2-aminoethyl)cyclohexyl)-2,3-dihydro-1H-inden-5-amine]
EC50 (Homo sapiens, HT-1080, 20 h): 0.1 to 100 nM

CC1(C)CCC(C)(C)c2cc(NC3CCC(N)CC3)ccc21 (stereo not shown) [Compound 265, N1-(5,5,8,8-tetramethyl-5,6,7,8-tetrahydronaphthalen-2-yl)cyclohexane-1,4-diamine]
EC50 (Homo sapiens, HT-1080, 20 h): 0.1 to 100 nM

CC(C)(C)c1ccc(NC2CCC(NC(N)=O)CC2)cc1 (stereo not shown) [Compound 266A, 1-(4-((4-(tert-butyl)phenyl)amino)cyclohexyl)urea]
EC50 (Homo sapiens, HT-1080, 20 h): 100 to 1000 nM

CC(C)(C)c1ccc(NC2CCC(NCCCN)CC2)cc1 (stereo not shown) [Compound 267, 1-N-(3-aminopropyl)-4-N-(4-(tert-butyl)phenyl)cyclohexane-1,4-diamine]
EC50 (Homo sapiens, HT-1080, 20 h): 1000 to 10000 nM

CC(C)(C)c1ccc(NC2CCC(NCCN)CC2)cc1 (stereo not shown) [Compound 268, 1-N-(2-aminoethyl)-N4-(4-(tert-butyl)phenyl)cyclohexane-1,4-diamine]
EC50 (Homo sapiens, HT-1080, 20 h): 0.1 to 100 nM

CC1CCC(Nc2ccc(C3CCCCC3)cc2)CC1 (stereo not shown) [Compound 269, 4-cyclohexyl-N-(4-methylcyclohexyl)aniline]
EC50 (Homo sapiens, HT-1080, 20 h): 100 to 1000 nM

CC(C)(C)c1ccc(NC2CCC(N)(CN)CC2)cc1 (stereo not shown) [Compound 270, 1-(aminomethyl)-N4-(4-(tert-butyl)phenyl)cyclohexane-1,4-diamine]
EC50 (Homo sapiens, HT-1080, 20 h): 100 to 1000 nM

CCCCCCOc1cc(NC2CCC(N)CC2)ccc1C(C)(C)C (stereo not shown) [Compound 271, N1-(4-(tert-butyl)-3-(hexyloxy)phenyl)cyclohexane-1,4-diamine]
EC50 (Homo sapiens, HT-1080, 20 h): 0.1 to 100 nM

CCC(C)(C)c1ccc(NC2CCC(N)C2)cc1 (stereo not shown) [Compound 272, N^1-(4-(tert-pentyl)phenyl)cyclopentane-1,3-diamine]
EC50 (Homo sapiens, HT-1080, 20 h): 0.1 to 100 nM

CCC(C)(C)c1ccc(NC2CC(N)C2)cc1 (stereo not shown) [Compound 273, N1-(4-(tert-pentyl)phenyl)cyclobutane-1,3-diamine]
EC50 (Homo sapiens, HT-1080, 20 h): 0.1 to 100 nM

CC1(C)CCC(c2ccc(NC3CCC(NC(=O)C4CNCCN4)CC3)cc2)CC1 (stereo not shown) [Compound 274, N-(4-((4-(4,4-dimethylcyclohexyl)phenyl)amino)cyclohexyl) piperazine-2-carboxamide]
EC50 (Homo sapiens, HT-1080, 20 h): 0.1 to 100 nM

CC1(C)CCC(c2ccc(NC3CCC(N)(CO)CC3)cc2)CC1 (stereo not shown) [Compound 275A]
EC50 (Homo sapiens, HT-1080, 20 h): 0.1 to 100 nM

CC(C)(C)c1ccc(NC2CC3(CC(N)C3)C2)cc1 (stereo not shown) [Compound 276, N2-(4-(tert-butyl)phenyl)spiro[3.3]heptane-2,6-diamine]
EC50 (Homo sapiens, HT-1080, 20 h): 0.1 to 100 nM

CC(C)(C)c1ccc(NC2CC3CC(N)CC3C2)cc1 (stereo not shown) [Compound 277, N2-(4-(tert-butyl)phenyl) octahydropentalene-2,5-diamine]
EC50 (Homo sapiens, HT-1080, 20 h): 0.1 to 100 nM

CCCc1ccc(NC2CCC(C)(N)CC2)cc1 (stereo not shown) [Compound 278, 1-methyl-N4-(4-propylphenyl)cyclohexane-1,4-diamine]
EC50 (Homo sapiens, HT-1080, 20 h): 0.1 to 100 nM

C[C@H](O)[C@@H](N)C(=O)NC1CCC(Nc2ccc(C3CCC(C)(C)CC3)cc2)CC1 (stereo partly drawn) [Compound 279, (2R, 3S)-2-amino-N-(4-((4-(4,4-dimethylcyclohexyl)phenyl)amino)cyclohexyl)-3-hydroxybutanamide]
EC50 (Homo sapiens, HT-1080, 20 h): 0.1 to 100 nM

NC1CCC(Nc2ccc(C3CCC(C(F)(F)F)CC3)cc2)CC1 (stereo not shown) [Compound 280, N1-(4-(4-(trifluoromethyl)cyclohexyl)phenyl)cyclohexane-1,4-diamine]
EC50 (Homo sapiens, HT-1080, 20 h): 0.1 to 100 nM

CCc1c(C)cc(NC2CCC(N)CC2)cc1C (stereo not shown) [Compound 281, N1-(4-ethyl-3,5-dimethylphenyl)cyclohexane-1,4-diamine]
EC50 (Homo sapiens, HT-1080, 20 h): 0.1 to 100 nM

Cc1ccc(NC2CCC(CN)CC2)cc1C (stereo not shown) [Compound 282, N-(4-(aminomethyl)cyclohexyl)-3,4-dimethylaniline]
EC50 (Homo sapiens, HT-1080, 20 h): 100 to 1000 nM

CC(C)c1ccc(NC2CCC(CN)CC2)cc1 (stereo not shown) [Compound 283, N-(4-(aminomethyl)cyclohexyl)-4-isopropylaniline]
EC50 (Homo sapiens, HT-1080, 20 h): 0.1 to 100 nM

CC1(N)CCC(Nc2ccc3c(c2)CCCC3)CC1 (stereo not shown) [Compound 285, 1-methyl-N4-(5,6,7,8-tetrahydronaphthalen-2-yl)cyclohexane-1,4-diamine]
EC50: 0.1 to 100 nM

NCC1CCC(Nc2ccc3c(c2)CCCC3)CC1 (stereo not shown) [Compound 286, N-(4-(aminomethyl)cyclohexyl)-5,6,7,8-tetrahydronaphthalen-2-amine]
EC50 (Homo sapiens, HT-1080, 20 h): 0.1 to 100 nM

CC(C)(C)c1ccc(NC2CCC(CCCN)CC2)cc1 (stereo not shown) [Compound 287, N-(4-(3-aminopropyl)cyclohexyl)-4-(tert-butyl)aniline]
EC50 (Homo sapiens, HT-1080, 20 h): 0.1 to 100 nM

CC(C)(C)c1ccc(NC[C@H]2CC[C@@H](N)CC2)cc1 [Compound 288, N-(((1s, 4s)-4-aminocyclohexyl)methyl)-4-(tert-butyl)aniline]
EC50 (Homo sapiens, HT-1080, 20 h): 0.1 to 100 nM

CC(N)C1CCC(Nc2ccc(C(C)(C)C)cc2)CC1 (stereo not shown) [Compound 290, N-(4-(1-aminoethyl)cyclohexyl)-4-(tert-butyl)aniline]
EC50 (Homo sapiens, HT-1080, 20 h): 0.1 to 100 nM

CCCc1ccc(NC2CCC(CN)CC2)cc1 (stereo not shown) [Compound 291, N-(4-(aminomethyl)cyclohexyl)-4-propylaniline]
EC50 (Homo sapiens, HT-1080, 20 h): 0.1 to 100 nM

CCCc1ccc(NC2CCC(CCN)CC2)cc1 (stereo not shown) [Compound 292, N-(4-(2-aminoethyl)cyclohexyl)-4-propylaniline]
EC50 (Homo sapiens, HT-1080, 20 h): 0.1 to 100 nM

CCOCCCc1ccc(N[C@H]2CC[C@H](N)CC2)cc1 [Compound 293, (1r,4r)-N1-(4-(3-ethoxypropyl)phenyl)cyclohexane-1,4-diamine]
EC50 (Homo sapiens, HT-1080, 20 h): 100 to 1000 nM

CCC(C)(C)c1ccc(NC2CCC(N)(CO)CC2)cc1 (stereo not shown) [Compound 296A, (1-amino-4-((4-(tert-pentyl)phenyl)amino)cyclohexyl)methanol]
EC50 (Homo sapiens, HT-1080, 20 h): 0.1 to 100 nM

CC(CN1CCCC1)Nc1ccc(C2CCC(C)(C)CC2)cc1 (stereo not shown) [Compound 297, 4-(4,4-dimethylcyclohexyl)-N-(1-(pyrrolidin-1-yl)propan-2-yl)aniline]
EC50 (Homo sapiens, HT-1080, 20 h): 0.1 to 100 nM

CCC(C)(C)c1ccc(NC2CCC(O)CC2)cc1 (stereo not shown) [Compound 298, 4-((4-(tert-pentyl)phenyl)amino)cyclohexan-1-ol]
EC50 (Homo sapiens, HT-1080, 20 h): 100 to 1000 nM

COCCCOc1cc(NC2CCC(N)CC2)ccc1C(C)(C)C (stereo not shown) [Compound 300A, N1-(4-(tert-butyl)-3-(3-methoxypropoxy)phenyl)cyclohexane-1,4-diamine]
EC50 (Homo sapiens, HT-1080, 20 h): 0.1 to 100 nM

COCCOc1cc(NC2CCC(N)CC2)ccc1C(C)(C)C (stereo not shown) [Compound 301A, N1-(4-(tert-butyl)-3-(2-methoxyethoxy)phenyl)cyclohexane-1,4-diamine]
EC50 (Homo sapiens, HT-1080, 20 h): 0.1 to 100 nM

COCCCCOc1cc(NC2CCC(N)C2)ccc1C(C)(C)C (stereo not shown) [Compound 302, N1-(4-(tert-butyl)-3-(4-methoxybutoxy)phenyl)cyclopentane-1,3-diamine]
EC50 (Homo sapiens, HT-1080, 20 h): 0.1 to 100 nM

CC(C)(C)c1ccc(NC2CCC(CCCCN)CC2)cc1 (stereo not shown) [Compound 303, N-(4-(4-aminobutyl)cyclohexyl)-4-(tert-butyl)aniline]
EC50 (Homo sapiens, HT-1080, 20 h): 0.1 to 100 nM

CCc1ccc(NC2CCC(N)CC2)cc1C (stereo not shown) [Compound 304, N1-(4-ethyl-3-methylphenyl)cyclohexane-1,4-diamine]
EC50 (Homo sapiens, HT-1080, 20 h): 100 to 1000 nM
